Measurements: patent publication US20250197513A1, “OSMR-SPECIFIC MONOCLONAL ANTIBODIES AND METHODS OF THEIR USE” (THE BOARD OF REGENTS OF THE UNIVERSITY OF TEXAS SYSTEM, priority 2021, published 2025)

Legend:
OVCAR8 cells = experiment: Cell viability, cisplatin 48 h; type: cell-based, human; conditions: cisplatin alone
Protocol: (§1) CCK8 cell viability assay: One thousand cells were seeded each well in 96-well plates. Following treatment for 48 h, the cells were washed with PBS and incubated for 4 h with CCK8 reagent at 37° C. in 5% CO2 incubator according to manufacturer's guidelines. The absorbance was measured at 460 nm.

A2780-CP tumors = experiment: In vivo, intraperitoneal A2780-cisplatin resistant luciferase tumors; set-up: species or system athymic nude mice; conditions: cisplatin alone, 5 mg/kg biweekly
A2780 cells = experiment: Cell viability, cisplatin 48 h; type: cell-based, human; conditions: cisplatin alone
Protocol: as §1

SL3 cells = experiment: Cell viability, cisplatin 48 h; type: cell-based, human; conditions: cisplatin alone
Protocol: as §1

A2780-Cis cells = experiment: Cell viability, cisplatin 48 h; type: cell-based, human; conditions: cisplatin alone
Protocol: as §1

A2780 ovarian cancer = experiment: In vivo, intraperitoneal A2780-sensitive luciferase tumors; set-up: species or system athymic nude mice; conditions: single agent, mice stimulated with OSM; cisplatin 5 mg/kg biweekly
SL-3-Cis cells = experiment: Cell viability, cisplatin 48 h; type: cell-based, human; conditions: cisplatin alone
Protocol: as §1

OVCAR8-Cis cells = experiment: Cell viability, cisplatin 48 h; type: cell-based, human; conditions: cisplatin alone
Protocol: as §1

SMILES: N.N.[Cl][Pt][Cl] [cisplatin]
- IC50 (OVCAR8 cells): 1.74 µM
- growth and metastasis of A2780-CP tumors (A2780-CP tumors): did not inhibit the growth and metastasis
- IC50 (A2780 cells): 2.04 µM
- IC50 (SL3 cells): 1.21 µM
- IC50 (A2780-Cis cells): 10.4 µM
- growth of A2780 ovarian cancer (bioluminescence) (A2780 ovarian cancer): reduced the growth
- IC50 (SL-3-Cis cells): 7.37 µM
- IC50 (OVCAR8-Cis cells): 13.6 µM
